According to patent US6576668B1, “Remedies for arthrosis deformans” (Santen Pharmaceutical Co., Ltd., priority 1999, dated 2003):

What was measured:
[1] = system: degradation of proteoglycan in chondrocytes; experiment: Degradation of proteoglycan in IL-1β-treated chondrocytes (GAG concentration in supernatant); format: cell-based; conditions: Oryctolagus cuniculus, Chondrocyte, 48 h, rabbit chondrocytes, IL-1β 1 ng/ml, two days culture, average of three samples, read-out: Degradation inhibition rate (%) (proteoglycan)
Source text: In order to study utility of the present compound, actions of the present compound on MMP-3 production and degradation of proteoglycan after IL-1β treatment were studied by using chondrocytes separated from femurs of rabbit knee joints according to the report of Nose et al. (J. Rheumatology, 24, 550-554 (1997)). The action on MMP-3 production was studied by measuring MMP-3 activity. The action on degradation of proteoglycan was studied by measuring glycosaminoglycan (GAG) being a degradation product of proteoglycan. Femurs of knee joints of male Japanese white rabbits were enucleated. Surface cartilage of the femur was sliced into small pieces, and then tissues were dissociated by enzyme treatment to prepare chondrocytes. A mammal cell culture basal medium D-MEM (Dulbecco's Modified Eagle Medium, produced by Gibco Co., Ltd.) containing β-ketoglutaric acid (5 μg/ml), L-ascorbic acid (50 μg/ml), lactoalbumin hydrolyzate (0.2 mg/ml), penicillin (100 U/ml) and streptomycin (100 μg/ml) (hereinafter referred to as “medium A”) was prepared. […] A GAG concentration in the supernatant was measured according to the method of Farndale et al. (Biochim. Biophys. Acta, 883, 173-177 (1986)). […]

[2] = system: MMP-3 production of chondrocytes; experiment: MMP-3 production of IL-1β-treated chondrocytes (MMP-3 activity in culture supernatant); format: cell-based; conditions: Oryctolagus cuniculus, Chondrocyte, 48 h, rabbit chondrocytes, IL-1β 1 ng/ml, two days culture, average of three samples, read-out: Production inhibition rate (%) (MMP-3)
Source text: In order to study utility of the present compound, actions of the present compound on MMP-3 production and degradation of proteoglycan after IL-1β treatment were studied by using chondrocytes separated from femurs of rabbit knee joints according to the report of Nose et al. (J. Rheumatology, 24, 550-554 (1997)). The action on MMP-3 production was studied by measuring MMP-3 activity. The action on degradation of proteoglycan was studied by measuring glycosaminoglycan (GAG) being a degradation product of proteoglycan. Femurs of knee joints of male Japanese white rabbits were enucleated. Surface cartilage of the femur was sliced into small pieces, and then tissues were dissociated by enzyme treatment to prepare chondrocytes. A mammal cell culture basal medium D-MEM (Dulbecco's Modified Eagle Medium, produced by Gibco Co., Ltd.) containing β-ketoglutaric acid (5 μg/ml), L-ascorbic acid (50 μg/ml), lactoalbumin hydrolyzate (0.2 mg/ml), penicillin (100 U/ml) and streptomycin (100 μg/ml) (hereinafter referred to as “medium A”) was prepared. […] A culture supernatant was collected, and MMP-3 activity in the supernatant was measured with MMP-3 assay Kit (produced by Yagai Co., Ltd.). […]

[3] = system: mobility of knee joint, rabbit-immobilized models; experiment: Improvement effect on mobility of knee joint in rabbit-immobilized models; format: in vivo, NZW rabbits; conditions: for Mobility of knee joint (degree): measured on 29th day, control 42, average of ten samples
Source text: In order to study in vivo effects of the present compound on osteoarthritis, an improvement effect on a mobility of a knee joint was investigated by using rabbit-immobilized models. A test compound was suspended in a 1% aqueous methyl cellulose solution to prepare test compound solutions having desired concentrations. Knee joints of right hind paws of NZW rabbits (13 weeks old, body weight: 2.97 to 3.27 kg) were fixed in an extended position with plaster bandages under sodium pentobarbital (25 mg/kg) anesthesia. Administering orally the test compound (amount of liquid to be administered: 10 ml/kg) to the rabbits for four weeks, the rabbits were sacrificed by exsanguination on the 29th day, and then mobilities of the knee joints were measured. A similar experiment was carried out by using a 1% aqueous methyl cellulose solution (10 ml/kg) as a control instead of the test compound. The mobility of the knee joint was determined from a difference between a maximum flection angle obtained when a paw joint of the rabbit was vertically loaded with a load of 400 g and a maximum extension angle.

With `CC(C)(S)C(=O)N[C@@H](CS)C(=O)O` [Bucillamine, bucillamine] the inhibition at 3 µM [1] was 19%, the inhibition at 3 µM [2] was 28% and the “Mobility of knee joint (degree)” value ([3]; 10 mg/kg orally for four weeks) was 46 degree. The “Mobility of knee joint (degree)” value ([3]; 30 mg/kg orally for four weeks) was 48 degree, the “Mobility of knee joint (degree)” value ([3]; 100 mg/kg orally for four weeks) was 53 degree and the “Effect on mobility of the rabbit knee joint (in words)” value ([3]; 10 to 100 mg/kg orally for four weeks) was “improves the mobility of the rabbit knee joint dose-dependently”.
